The source of these data is US7173021B2, “Synthesis of temozolomide esters as potent anticancer pro-drugs for topical and transdermal applications in treatments of cancers” (Tianjin North Pharm Sci-Tech Co., Ltd., priority 2004, dated 2007).

Structures are written as SMILES. In brackets after ≈: the same amount, converted by molar mass.

A short description of series [1]: In vitro permeation and metabolism, Franz diffusion cell, full-thickness rat skin. The note with it: 37° C., 8 h, FIGS. 6-8. It is filed as in vitro ADME. The source says:
(§1) Jacketed Franz-type diffusion cells were used throughout the study and the barrier (12) (skin or silicone membrane) was mounted between the two chambers (14, 16) (2.8–3.4 cm^2 available surface area) with the dermal side in contact with the receiver solution (FIG. 2). The diffusion chambers (10) comprised a barrier of skin or silicone membrane (12) mounted between two chambers (14, 16). A cap (18) formed the donor compartment (14). The second receptor compartment (16) contained a receptor cell (20) with a stirring bar (22), sampling port (24) and cover (26). The stirring bar (22) was stirred by means of a magnet plate (28) having a rotating magnet. The receptor compartment comprised a water jacket (30) having a water inlet (32) and a water outlet (34).
Three types of materials were used in permeation studies. • 1. […]
The membrane (as detailed above) was mounted on the diffusion cell (10), on which the surface area available for diffusion of each cell was about 2.8–3.4 cm^2. […] The concentration of each sample solution was determined by using HPLC. […]
As stated above, after the removal of receptor solution, the receiver compartment was refilled with an identical volume of receptor fluid. […] As a consequence, it was necessary to mathematically correct each successive sample concentrations, in the present invention, which was determined by applying the following equation: […]

For a further series, the system named is MV3 (human melanoma). Nature of the series: In vitro tumour cell growth inhibition (MTT), MV3. It is filed as cell-based. The note with it: Homo sapiens, 96 h. The protocol:
(§2) Temozolomide (white powder), temozolomide acid (white powder) and temozolomide-8-carboxylate hexyl (white scale crystal) were made in house. For the estimation of in vitro tumour cell growth inhibition, MV3 (human melanoma), M14 (human melanoma), B16 and B16-BL6 (mouse melanoma), SHG-44, TJ899 and TJ905 (human glioma), MCF-7 (human breast), HCT-8 (human colon), A549 (human non small lung), Bel7402 (human hepatocellulor), and BGC-823 (human stomach) were used. All tumour cells were cultured in RPMI-1640 medium supplemented with 10% fetal bovine serum (FBS) at 37° C. in a humidified 5% CO2 incubator.
(§3) After being harvested from culture flasks, a cell suspension of 1×10^4/ml was made by using 1640 RPMI medium supplemented with 10% fetal bovine serum. 100 μl (contains 1000 tumour cells) of the cell suspension was seeded per well of 96-well flat-bottom Costar culture plates at 37° C. in a humidified 5% CO2 incubator for 24 hrs before introducing drugs. Each tested compounds was made for five different concentrations and 100 μl of the each concentration was introduced into parallel three wells; control wells were added with 100 μl of plain medium alone; fluorouracil (a chemotherapeutic antitumour drug) was used as the positive control. Cells were then incubated for 96 h. Proliferative response and cell death were determined using MTT (3-(4,5-dimethylthiazolyl)-2,5-diphenyl-tetrazolium bromide) assay.
(§4) MTT assay: Following incubation of cells with the tested compounds for 96 h, 100 μl of 0.4 mg/ml MTT in RPMI 1640 was added to each well and the plate was incubated at 37° C. for 4 h. The plate was then centrifuged and followed by removal of medium. 150 μl of DMSO was then added to dissolve formazan crystal. DMSO-added plates were placed on a plate shaker for 5 min and absorbance was measured spectrophotometrically at 540 nm (with reference wavelength at 450 nm) using a Benchmark microtiter plate reader (Bio-Rad 550, Bio-Rad Laboratories, CA, U.S.A.).
(§5) The IC50 was calculated from the curve of the tested compound concentrations against the inhibition rate of the tumour cells. Table 1 summarized the experiment results by using six human cancer cell lines, HCT-8 (colon carcinoma), A549 (non small lung carcinoma), MCF-7 (breast), Bel7402 (hepatocellulor carcinoma), BGC-823 (stomach adenocarcinoma), and MV3 (melanoma). Table 2 summarized the results from the experiment results by using two human melanoma cell lines, MV3 and M14, two mouse melanoma cell lines, B16 and B16-BL6, and three human glioma cell lines, TJ899, SHG-44 and TJ905.

Series [2] is described as follows: In vitro permeation and metabolism, Franz diffusion cell, human skin. It counts as in vitro ADME.
Source text: as §1
Three types of materials were used in permeation studies. • 1. Silicone membrane (Silastic Medical Grade, 500-5, Dow Corning 0.005 in thick) was cut into circular sections (2 cm diameter) and washed with double distilled water prior to use. • 2. Full-thickness rat skin was obtained from Male Wistar rats aged 10 to 12 weeks and weighing 250 to 300 g, which were sacrificed by cervical dislocation, the abdomen shaved and the intact skin removed by dissection. Following removal of fat tissue, the skin was cut into circular pieces and used immediately. • 3. Samples of adult human epidermis were purchased from the Stephen Kirby Skin Bank (UK). The samples were from the leg, were stored at −18° C. and used within one week. Experiments
The membrane (as detailed above) was mounted on the diffusion cell (10), on which the surface area available for diffusion of each cell was about 2.8–3.4 cm^2. The cell cap (18) was placed on the membrane (12), and it was sealed with Parafilm® connecting the cell cap, membrane, and receptor cell. […] The concentration of each sample solution was determined by using HPLC. […]
As stated above, after the removal of receptor solution, the receiver compartment was refilled with an identical volume of receptor fluid. […] As a consequence, it was necessary to mathematically correct each successive sample concentrations, in the present invention, which was determined by applying the following equation:
[formula] where Ct is the actual current concentration of drug in the receptor phase at time t, Cmt is the apparent (i.e. measured) current concentration of drug in the receptor phase, Vs is the sample volume withdrawn for analysis, Vr is the volume of receptor solution, and ΣCm is the summed total of the previous measured concentrations.
Finally, the amount of drug penetrating the skin per unit area was calculated by dividing the obtained concentrations by the surface area available for diffusion cell and this value was different for each individual cell. […]

The next series relates to B16-BL6 (mouse melanoma). Nature of the series: In vitro tumour cell growth inhibition (MTT), B16-BL6. It is filed as cell-based. The note with it: Mus musculus, B16-BL6, Table 2 experiment, 96 h. The protocol: as §2, §3, §4, §5

Take `CCCCCCOC(=O)c1ncn2c(=O)n(C)nnc12` [temozolomide hexyl ester, Hexyl 3,4-dihydro-3-methyl-4-oxoimidazo[5,1-d]-1,2,3,5-tetrazine-8-carboxylate]: in series [1], the “Permeation through full-thickness rat skin (cumulative amount permeated %)” value is “maximum value”. For the same compound, the figures for the IC50 in the series with MV3 (human melanoma) (Table 1 experiment), in the series with MV3 (human melanoma) (Table 2 experiment (separate)) and in the series on B16-BL6 (mouse melanoma) were 8.84 µg/mL (≈ 31.6 µM), 25 µg/mL (≈ 89.5 µM) and above 100 µg/mL, respectively. Further, the “Permeation through human skin” value in series [2] (37° C., FIG. 9) was “notably better than temozolomide”. The “Metabolism within human skin to temozolomide acid” value in series [2] (human skin) is listed as “completely metabolized into the temozolomide acid”.
